# Assay results as given in patent publication US4770870A, “Method for reducing pain associated with the administration of 4-sulfido-oxazaphosphorines and 4-sulfoalkylthio-oxazaphorphorines” (Asta Pharma Aktiengesellschaft, priority 1981, dated 1988).
# Structures can show the parent of a compound that is named as a salt. Where two headings read alike, the source gives them in different places.
# Legend:
# [1] = mouse, in vivo
# Human mammary-carcinoma = Human mammary-carcinoma heterotransplanted to nu/nu mice; type: in vivo, human tumor in mouse (nu/nu); settings: cyclophosphamide single injection of 100 mg/kg
# Procedure: (The experimental procedure was carried out as follows according to: C. O. Polvsen, G. K. Jacobsen, J. Rygaard, The Laboratory Animal in Drug Testing, Editor A. Spiegel, pages 63-73, Fischer-Verlag, Stuttgart, (1973).
# (a) Human mammary-carcinoma from operation material of a women's clinic were heterotransplanted to thymusaplastic nu/ny mice. After the 23-25th passage in each case by implantation of a thin tumor section having a diameter of 8-10 mm into the milk ducts after growth of the implants to 0.15-0.25 grams the animals were subjected to therapy and the curative effect determined through measuring the tumor surface.
# [2] = Subchronic toxicity, NMRI-mouse; settings: same pattern without cysteine, total dosage 3 mmol/kg
# [3] = Acute toxicity (LD50), single intravenous dose, species not stated; settings: in vivo
smiles,measurement,setting,value
O=S(=O)([O-])CCS.[Na+],prevention of pain induced by mafosfamide lysine salt,"rat, in vivo",completely prevented the pain-inducing effect of mafosfamide lysine salt
"Cl [HCl pH 4, hydrochloric acid]","Reaction (+ = reaction, - = no reaction)","rat, in vivo",-
same,reaction,"rat, in vivo",Neither
"CC(=O)N[C@@H](CS)C(=O)O [NAC, N-acetyl-cysteine]",prevention of pain induced by mafosfamide lysine salt,5 molar mesna or NAC solution,completely prevented the pain-inducing effect of mafosfamide lysine salt
"O=P1(N(CCCl)CCCl)NC(SCC(S)CS(=O)(=O)O)CCO1 (centres unmarked) [cyclohexylamine salt, 3-[2-(bis-(2-chloroethyl)-amine-2-oxo-tetrahydro-2H-1,3,2-oxazaphosphorine-4-yl-thio]-2-mercaptopropanesulfonic acid-cyclohexylamine salt]",increase of the LD50,[1],2-3 fold
O=P1(N(CCCl)CCCl)NCCCO1 (centres unmarked) [cyclophosphamide],tumor growth,Human mammary-carcinoma,checking of the tumor growth
same,Approximate threshold concentration inducing venous pain,"Table 1, sleeping rat",30 mg/mL
same,concentration at which no reaction was induced,sleeping rat,below 30 mg/ml
same,"Reaction (+ = reaction, - = no reaction)","sleeping rat, tail vein infusion",+
same,deaths of mice,[2],6 mice
same,LD50,[3],244 mg/kg
O=P1(NCCCl)OCCCN1CCCl (centres unmarked) [ifosfamide],Approximate threshold concentration inducing venous pain,"rat, in vivo",> 10 mg/mL
same,"Reaction (+ = reaction, - = no reaction)","rat, in vivo",+
same,concentration at which no reaction was induced,"rat, in vivo",below 10 mg/ml
